From paper PMC5811606, “Characterization of ^111In-labeled Glucose-Dependent Insulinotropic Polypeptide as a Radiotracer for Neuroendocrine Tumors” (Scientific Reports, 2018)
Where two headings read alike, the source gives them in different places.

Assay: Peptide dose escalation study, BHK-GIPR tumor mice
Format: in vivo, BALB/c nude mice
Conditions: female, iv, total radioactivity; for tissue to tissue ratio at 4 h: BHK-GIPR tumor / blood, read-out: Tumor/Blood
Procedure: All animal experiments were approved by the Animal Welfare Body of the Radboud University, Nijmegen, The Netherlands and carried out in accordance with their guidelines. Six to eight weeks old, female BALB/c nude mice and C3H mice were purchased from Janvier labs (Le Genest Saint Isle, France). For all in vivo experiments, 6-8 weeks old female BALB/c nude mice were injected subcutaneously in the right shoulder with 0.2 ml of a 2.5 × 10^7 cells/ml suspension of BHK-GIPR transfected cells or with 0.2 ml of a 2.5 × 10^7 cells/ml suspension of NES2Y cells mixed with matrigel (2:1) in the right shoulder. When the tumor reached a diameter of 2-5 mm, mice were randomly divided in groups.
To determine the optimal peptide dose of [Lys^37(DTPA)]N-acetyl-GIP1-42, BHK-GIPR transfected tumor bearing BALB/c nude mice (n = 5/group) were injected intravenously with approximately 3 MBq [Lys^37(^111In-DTPA)]N-acetyl-GIP1-42 (0.05 µg) in the tail vein and were co-injected with escalating amounts of unlabeled [Lys^37(DTPA)]N-acetyl-GIP1-42 (0.05 µg – 1.95 µg), resulting in final peptide doses ranging from 0.1 to 2 µg/mouse (0.02 – 0.4 nmol/mouse) (5 groups, n = 5/group). Four hours after injection, mice were euthanized by CO2/O2 suffocation and tumors and other relevant tissues (heart, muscle, lung, spleen, pancreas, kidney, liver, stomach and duodenum) were dissected, weighed and measured in a well type gamma counter. The percentage injected dose per gram of tissue (%ID/g) was determined for each tissue.

## CC[C@H](C)[C@H](NC(=O)[C@H](CO)NC(=O)[C@H](Cc1ccc(O)cc1)NC(=O)[C@H](CC(=O)O)NC(=O)[C@H](CO)NC(=O)[C@@H](NC(=O)[C@H](Cc1ccccc1)NC(=O)[C@@H](NC(=O)CNC(=O)[C@H](CCC(=O)O)NC(=O)[C@H](C)NC(=O)[C@H](Cc1ccc(O)cc1)NC(C)=O)[C@@H](C)O)[C@@H](C)CC)C(=O)N[C@@H](C)C(=O)N[C@@H](CCSC)C(=O)N[C@@H](CC(=O)O)C(=O)N[C@@H](CCCCN)C(=O)N[C@H](C(=O)N[C@@H](Cc1c[nH]cn1)C(=O)N[C@@H](CCC(N)=O)C(=O)N[C@@H](CCC(N)=O)C(=O)N[C@@H](CC(=O)O)C(=O)N[C@@H](Cc1ccccc1)C(=O)N[C@H](C(=O)N[C@@H](CC(N)=O)C(=O)N[C@@H](Cc1c[nH]c2ccccc12)C(=O)N[C@@H](CC(C)C)C(=O)N[C@@H](CC(C)C)C(=O)N[C@@H](C)C(=O)N[C@@H](CCC(N)=O)C(=O)N[C@@H](CCCCN)C(=O)NCC(=O)N[C@@H](CCCCN)C(=O)N[C@@H](CCCCN)C(=O)N[C@@H](CC(N)=O)C(=O)N[C@@H](CC(=O)O)C(=O)N[C@@H](Cc1c[nH]c2ccccc12)C(=O)N[C@@H](CCCCNC(=O)CN(CCN(CCN(CC(=O)O)CC(=O)O)CC(=O)O)CC(=O)O)C(=O)N[C@@H](Cc1c[nH]cn1)C(=O)N[C@@H](CC(N)=O)C(=O)N[C@H](C(=O)N[C@H](C(=O)N[C@@H](CCC(N)=O)C(=O)O)[C@@H](C)O)[C@@H](C)CC)C(C)C)[C@@H](C)CC [[Lys^37(^111In-DTPA)]N-acetyl-GIP1-42, metal not drawn]
BALB/c nude, BHK-GIPR tumor, peptide doses ≤ 0.2 µg (0.04 nmol) per mouse, 4 hours post-injection, mean ± SD, n=5, read-out: tumor uptake
  tissue uptake at 4 h: 5.2 ± 1.4 %ID/g
BALB/c nude, mouse, 0.5 ug/mouse, BHK-GIPR tumor, peptide dose 0.5 µg (0.1 nmol), 4 hours post-injection, mean ± SD, n=5, read-out: tumor uptake
  tissue uptake at 4 h: 2.4 ± 0.7 %ID/g
mouse, 0.1 ug/mouse, BHK-GIPR tumor BALB/c nude mice, i.v., peptide dose 0.1 µg, 4 h p.i., mean n=5
  tissue to tissue ratio at 4 h: 143
mouse, 0.2 ug/mouse, BHK-GIPR tumor BALB/c nude mice, i.v., peptide dose 0.2 µg, 4 h p.i., mean n=5
  tissue to tissue ratio at 4 h: 110
mouse, 0.5 ug/mouse, BHK-GIPR tumor BALB/c nude mice, i.v., peptide dose 0.5 µg, 4 h p.i., mean n=5
  tissue to tissue ratio at 4 h: 52.6
mouse, 1 ug/mouse, BHK-GIPR tumor BALB/c nude mice, i.v., peptide dose 1 µg, 4 h p.i., mean n=5
  tissue to tissue ratio at 4 h: 50.3
mouse, blood, 0.1 ug/mouse, BHK-GIPR tumor BALB/c nude mice, i.v., peptide dose 0.1 µg, 4 h p.i., mean n=5, read-out: Blood uptake
  tissue uptake at 4 h: 0.033 %ID/g
mouse, blood, 0.2 ug/mouse, BHK-GIPR tumor BALB/c nude mice, i.v., peptide dose 0.2 µg, 4 h p.i., mean n=5, read-out: Blood uptake
  tissue uptake at 4 h: 0.047 %ID/g
mouse, blood, 0.5 ug/mouse, BHK-GIPR tumor BALB/c nude mice, i.v., peptide dose 0.5 µg, 4 h p.i., mean n=5, read-out: Blood uptake
  tissue uptake at 4 h: 0.047 %ID/g
mouse, blood, 1 ug/mouse, BHK-GIPR tumor BALB/c nude mice, i.v., peptide dose 1 µg, 4 h p.i., mean n=5, read-out: Blood uptake
  tissue uptake at 4 h: 0.059 %ID/g
mouse, blood, 2 ug/mouse, BHK-GIPR tumor BALB/c nude mice, i.v., peptide dose 2 µg, 4 h p.i., mean n=5, read-out: Blood uptake
  tissue uptake at 4 h: 0.066 %ID/g
mouse, duodenum, 0.1 ug/mouse, BHK-GIPR tumor BALB/c nude mice, i.v., peptide dose 0.1 µg, 4 h p.i., mean n=5, read-out: Duodenum uptake
  tissue uptake at 4 h: 0.486 %ID/g
mouse, duodenum, 0.2 ug/mouse, BHK-GIPR tumor BALB/c nude mice, i.v., peptide dose 0.2 µg, 4 h p.i., mean n=5, read-out: Duodenum uptake
  tissue uptake at 4 h: 0.573 %ID/g
mouse, duodenum, 0.5 ug/mouse, BHK-GIPR tumor BALB/c nude mice, i.v., peptide dose 0.5 µg, 4 h p.i., mean n=5, read-out: Duodenum uptake
  tissue uptake at 4 h: 0.529 %ID/g
mouse, duodenum, 1 ug/mouse, BHK-GIPR tumor BALB/c nude mice, i.v., peptide dose 1 µg, 4 h p.i., mean n=5, read-out: Duodenum uptake
  tissue uptake at 4 h: 0.75 %ID/g
mouse, duodenum, 2 ug/mouse, BHK-GIPR tumor BALB/c nude mice, i.v., peptide dose 2 µg, 4 h p.i., mean n=5, read-out: Duodenum uptake
  tissue uptake at 4 h: 0.929 %ID/g
mouse, heart, 0.1 ug/mouse, BHK-GIPR tumor BALB/c nude mice, i.v., peptide dose 0.1 µg, 4 h p.i., mean n=5, read-out: Heart uptake
  tissue uptake at 4 h: 0.133 %ID/g
mouse, heart, 0.2 ug/mouse, BHK-GIPR tumor BALB/c nude mice, i.v., peptide dose 0.2 µg, 4 h p.i., mean n=5, read-out: Heart uptake
  tissue uptake at 4 h: 0.156 %ID/g
mouse, heart, 0.5 ug/mouse, BHK-GIPR tumor BALB/c nude mice, i.v., peptide dose 0.5 µg, 4 h p.i., mean n=5, read-out: Heart uptake
  tissue uptake at 4 h: 0.163 %ID/g
mouse, heart, 1 ug/mouse, BHK-GIPR tumor BALB/c nude mice, i.v., peptide dose 1 µg, 4 h p.i., mean n=5, read-out: Heart uptake
  tissue uptake at 4 h: 0.178 %ID/g
mouse, heart, 2 ug, BHK-GIPR tumor BALB/c nude mice, i.v., peptide dose 2 µg, 4 h p.i., mean n=5, read-out: Heart uptake
  tissue uptake at 4 h: 0.173 %ID/g
mouse, kidney, 0.1 ug/mouse, BHK-GIPR tumor BALB/c nude mice, i.v., peptide dose 0.1 µg, 4 h p.i., mean n=5, read-out: Kidney uptake
  tissue uptake at 4 h: 237 %ID/g
mouse, kidney, 0.2 ug/mouse, BHK-GIPR tumor BALB/c nude mice, i.v., peptide dose 0.2 µg, 4 h p.i., mean n=5, read-out: Kidney uptake
  tissue uptake at 4 h: 265 %ID/g
mouse, kidney, 0.5 ug/mouse, BHK-GIPR tumor BALB/c nude mice, i.v., peptide dose 0.5 µg, 4 h p.i., mean n=5, read-out: Kidney uptake
  tissue uptake at 4 h: 214 %ID/g
mouse, kidney, 1 ug/mouse, BHK-GIPR tumor BALB/c nude mice, i.v., peptide dose 1 µg, 4 h p.i., mean n=5, read-out: Kidney uptake
  tissue uptake at 4 h: 287 %ID/g
mouse, kidney, 2 ug/mouse, BHK-GIPR tumor BALB/c nude mice, i.v., peptide dose 2 µg, 4 h p.i., mean n=5, read-out: Kidney uptake
  tissue uptake at 4 h: 257 %ID/g
mouse, liver, 0.1 ug/mouse, BHK-GIPR tumor BALB/c nude mice, i.v., peptide dose 0.1 µg, 4 h p.i., mean n=5, read-out: Liver uptake
  tissue uptake at 4 h: 1.6 %ID/g
mouse, liver, 0.2 ug/mouse, BHK-GIPR tumor BALB/c nude mice, i.v., peptide dose 0.2 µg, 4 h p.i., mean n=5, read-out: Liver uptake
  tissue uptake at 4 h: 1.53 %ID/g
mouse, liver, 0.5 ug/mouse, BHK-GIPR tumor BALB/c nude mice, i.v., peptide dose 0.5 µg, 4 h p.i., mean n=5, read-out: Liver uptake
  tissue uptake at 4 h: 1.55 %ID/g
mouse, liver, 1 ug/mouse, BHK-GIPR tumor BALB/c nude mice, i.v., peptide dose 1 µg, 4 h p.i., mean n=5, read-out: Liver uptake
  tissue uptake at 4 h: 1.74 %ID/g
mouse, liver, 2 ug/mouse, BHK-GIPR tumor BALB/c nude mice, i.v., peptide dose 2 µg, 4 h p.i., mean n=5, read-out: Liver uptake
  tissue uptake at 4 h: 1.83 %ID/g
mouse, lung, 0.1 ug, BHK-GIPR tumor BALB/c nude mice, i.v., peptide dose 0.1 µg, 4 h p.i., mean n=5, read-out: Lung uptake
  tissue uptake at 4 h: 0.364 %ID/g
mouse, lung, 0.2 ug, BHK-GIPR tumor BALB/c nude mice, i.v., peptide dose 0.2 µg, 4 h p.i., mean n=5, read-out: Lung uptake
  tissue uptake at 4 h: 0.518 %ID/g
mouse, lung, 0.5 ug, BHK-GIPR tumor BALB/c nude mice, i.v., peptide dose 0.5 µg, 4 h p.i., mean n=5, read-out: Lung uptake
  tissue uptake at 4 h: 0.577 %ID/g
mouse, lung, 1 ug, BHK-GIPR tumor BALB/c nude mice, i.v., peptide dose 1 µg, 4 h p.i., mean n=5, read-out: Lung uptake
  tissue uptake at 4 h: 0.608 %ID/g
mouse, lung, 2 ug, BHK-GIPR tumor BALB/c nude mice, i.v., peptide dose 2 µg, 4 h p.i., mean n=5, read-out: Lung uptake
  tissue uptake at 4 h: 0.56 %ID/g
